Source: ChEMBL document CHEMBL1201862, “PubChem BioAssay data set” (2004)
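How tested: cells in 96-well plates exposed to compound for 48 hours at five concentrations. GI50 marks 50% less growth.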 The source made the active and inactive calls. No stated cut-off is given here; in the data, active = GI50 up to about 1.1 µM and inactive = higher.

Legend:
Experiment in all cases: NCI-60 cell line screen, 48 h
HCT-116 = system: HCT-116
HL-60 = system: HL-60
HOP-92 = system: HOP-92
HT-29 = system: HT-29
Hs-578T = system: Hs-578T
IGROV-1 = system: IGROV-1
MCF7 = system: MCF7
Malme-3M = system: Malme-3M
NCI-H226 = system: NCI-H226
NCI/ADR-RES = system: NCI/ADR-RES
OVCAR-3 = system: OVCAR-3
OVCAR-4 = system: OVCAR-4
OVCAR-5 = system: OVCAR-5
OVCAR-8 = system: OVCAR-8
SF-295 = system: SF-295
SK-MEL-28 = system: SK-MEL-28
SN12C = system: SN12C
TK-10 = system: TK-10
UACC-257 = system: UACC-257

Measured: GI50

c1ccc(-c2cn3c(nc4ccccc43)c(-c3ccccc3)n2)cc1
inactive: HCT-116 > 86.9 µM | HL-60 > 100 µM | HOP-92 16.9 µM | HT-29 71 µM | Hs-578T 16.3 µM | IGROV-1 42.9 µM | MCF7 69.7 µM | Malme-3M > 96.2 µM | NCI-H226 > 60.8 µM | NCI/ADR-RES 47.6 µM | OVCAR-3 > 100 µM | OVCAR-4 4.56 µM | OVCAR-5 > 54.2 µM | OVCAR-8 13.3 µM | SF-295 14.8 µM | SK-MEL-28 > 100 µM | SN12C 65.8 µM | TK-10 > 59.6 µM | UACC-257 > 100 µM

O=C(N/N=C/c1ccc2c(c1)CCC2)c1ccccc1O
inactive: HCT-116 19.4 µM | HL-60 23.2 µM | HOP-92 24.5 µM | HT-29 27.3 µM | Hs-578T 22.9 µM | IGROV-1 17.8 µM | MCF7 16.2 µM | Malme-3M 21.4 µM | NCI-H226 32.1 µM | NCI/ADR-RES 24.4 µM | OVCAR-3 16.8 µM | OVCAR-4 24.8 µM | OVCAR-5 32.5 µM | OVCAR-8 25.4 µM | SF-295 16.4 µM | SK-MEL-28 23.5 µM | SN12C 23.1 µM | TK-10 23 µM | UACC-257 28.6 µM

CCOC(=O)N/N=C/C1=NN(C(=O)OCC)[S+]([O-])C1C (stereo not given)
inactive: HCT-116 > 100 µM | HL-60 > 100 µM | HOP-92 > 100 µM | HT-29 > 100 µM | Hs-578T > 100 µM | IGROV-1 > 100 µM | MCF7 > 100 µM | Malme-3M > 100 µM | NCI-H226 > 100 µM | NCI/ADR-RES > 100 µM | OVCAR-3 > 100 µM | OVCAR-4 > 100 µM | OVCAR-5 > 100 µM | OVCAR-8 > 100 µM | SF-295 > 100 µM | SK-MEL-28 > 100 µM | SN12C > 100 µM | TK-10 > 100 µM | UACC-257 > 100 µM

O=[N+]([O-])c1cc(-c2nc(-c3ccccc3)c(-c3ccccc3)[nH]2)c(O)c([N+](=O)[O-])c1
inactive: HCT-116 17.7 µM | HL-60 25.6 µM | HOP-92 19.8 µM | HT-29 16.8 µM | Hs-578T 27.4 µM | IGROV-1 32.7 µM | MCF7 24.7 µM | Malme-3M 21.1 µM | NCI-H226 20.1 µM | NCI/ADR-RES 19.1 µM | OVCAR-3 33 µM | OVCAR-4 34 µM | OVCAR-5 23.2 µM | OVCAR-8 34 µM | SF-295 22.3 µM | SK-MEL-28 31.7 µM | SN12C 26.5 µM | TK-10 28.5 µM | UACC-257 24.2 µM

Nc1c(Br)cc(-c2nc3ccccc3s2)cc1Br
inactive: HCT-116 > 100 µM | HL-60 > 100 µM | HOP-92 > 100 µM | HT-29 > 100 µM | Hs-578T > 100 µM | IGROV-1 5.12 µM | MCF7 18.9 µM | Malme-3M > 100 µM | NCI-H226 > 100 µM | NCI/ADR-RES > 100 µM | OVCAR-3 > 100 µM | OVCAR-5 > 100 µM | OVCAR-8 > 100 µM | SF-295 > 100 µM | SK-MEL-28 > 100 µM | SN12C > 100 µM | TK-10 6.85 µM | UACC-257 > 100 µM

CC(=O)Nc1ccc(NCC(=O)Nn2cnc3ccc(S(=O)(=O)Nc4ccc(NC(C)=O)cc4)cc3c2=O)cc1
inactive: HCT-116 > 100 µM | HL-60 > 100 µM | HOP-92 > 100 µM | HT-29 > 100 µM | Hs-578T > 100 µM | IGROV-1 > 100 µM | MCF7 > 100 µM | Malme-3M > 100 µM | NCI-H226 > 100 µM | NCI/ADR-RES > 100 µM | OVCAR-3 > 100 µM | OVCAR-4 > 100 µM | OVCAR-5 > 100 µM | OVCAR-8 > 100 µM | SF-295 > 100 µM | SK-MEL-28 > 100 µM | SN12C > 100 µM | TK-10 > 100 µM | UACC-257 > 100 µM

CCOC(=O)/C=C(/C(=O)OCC)n1c(=O)c(C)cn(C2CC(N=[N+]=[N-])C(CO)O2)c1=O (stereo not given)
inactive: HCT-116 37.2 µM | HL-60 2.31 µM | HOP-92 30.8 µM | HT-29 35.7 µM | Hs-578T 51.2 µM | IGROV-1 37.3 µM | MCF7 19.8 µM | Malme-3M 54.3 µM | NCI-H226 45.4 µM | NCI/ADR-RES > 100 µM | OVCAR-3 19.5 µM | OVCAR-4 32.6 µM | OVCAR-5 > 100 µM | OVCAR-8 28.9 µM | SF-295 79.6 µM | SK-MEL-28 29.4 µM | SN12C 37.2 µM | TK-10 37.2 µM | UACC-257 22.1 µM

Fc1ccc(C(=C2CCN(CCc3ccc4[nH]c(=S)[nH]c4c3)CC2)c2ccc(F)cc2)cc1
inactive: HCT-116 1.79 µM | HL-60 2.33 µM | HOP-92 2.62 µM | HT-29 1.9 µM | Hs-578T 10.9 µM | IGROV-1 3.99 µM | MCF7 2.21 µM | Malme-3M 1.47 µM | NCI-H226 22 µM | NCI/ADR-RES 8.59 µM | OVCAR-3 2.1 µM | OVCAR-4 5 µM | OVCAR-5 9.23 µM | OVCAR-8 2.74 µM | SF-295 6.92 µM | SK-MEL-28 1.51 µM | SN12C 4.52 µM | TK-10 2.17 µM

CSCCCS/C1=C/CCCCCCCCCC1
inactive: HCT-116 > 100 µM | HL-60 > 100 µM | HOP-92 > 100 µM | HT-29 > 100 µM | Hs-578T > 100 µM | IGROV-1 > 100 µM | MCF7 > 100 µM | Malme-3M > 100 µM | NCI-H226 > 100 µM | NCI/ADR-RES > 100 µM | OVCAR-3 > 100 µM | OVCAR-4 > 100 µM | OVCAR-5 > 100 µM | SF-295 > 100 µM | SK-MEL-28 > 100 µM | SN12C > 100 µM | TK-10 > 100 µM | UACC-257 > 100 µM

COc1c2occc2c(OC)c2c(=O)c(S(=O)(=O)NC(=O)Nc3ccc(Cl)cc3)coc12
inactive: HCT-116 > 10 µM | HL-60 > 10 µM | HOP-92 > 10 µM | HT-29 > 10 µM | Hs-578T > 10 µM | IGROV-1 > 10 µM | MCF7 > 10 µM | Malme-3M > 10 µM | NCI-H226 > 10 µM | NCI/ADR-RES > 10 µM | OVCAR-3 > 10 µM | OVCAR-4 > 10 µM | OVCAR-5 > 10 µM | OVCAR-8 > 10 µM | SF-295 > 10 µM | SK-MEL-28 > 10 µM | SN12C > 10 µM | TK-10 > 10 µM | UACC-257 > 10 µM

N=C(N)NCCCC(=O)O
inactive: HCT-116 > 100 µM | HL-60 > 100 µM | HOP-92 > 100 µM | HT-29 > 100 µM | Hs-578T > 100 µM | IGROV-1 > 100 µM | MCF7 > 100 µM | Malme-3M > 100 µM | NCI-H226 > 100 µM | NCI/ADR-RES > 100 µM | OVCAR-3 > 100 µM | OVCAR-4 > 100 µM | OVCAR-5 > 100 µM | OVCAR-8 > 100 µM | SF-295 > 100 µM | SK-MEL-28 > 100 µM | SN12C > 100 µM | TK-10 > 100 µM
